# Assays:
# [1] = system: rice blast fungi (Magnaporthe grisea); test: whole plant or invertebrate; format: in vivo; settings: Pyricularia oryzae, read-out: Test A control value class (rice blast)
# [2] = system: grape downy mildew fungus (Plasmopara viticola); test: Test Example G: grape downy mildew, spray treatment of grape plants; settings: read-out: Test G control value class (grape downy mildew)
# Description: Test plants (grape variety: Neomuscat) were cultivated until three to four first leaves appeared after the sowing of seeds. In the test, the chemical solution was obtained by dissolving the compound of the present invention in a dimethylsulfoxide-methanol mixed solvent (volume ratio: 9/1) and appropriately diluting the resultant solution with well water so that the concentration was 250 ppm. The obtained chemical solution was sprayed to the test plants (2.5 ml/pot). The plants after the drying of the chemical liquid were inoculated with grape downy mildew fungus (Plasmopara viticola) by spraying a zoosporangial suspension of 1 to 2×10^4 zoosporangia/ml. After the inoculation, the plants were allowed to stand, for about 24 hours, in a moist chamber with the room temperature of 20° C. to promote the onset of disease. The degree of disease development after 7 to 10 days from the inoculation was investigated to evaluate the effect of the chemical solution.
# (§1) With respect to each Test Example described above, the degree of disease development was evaluated as a value with increments of 0.05, regarding the degree of disease development for plants with no onset of disease as 0 and that for plants of untreated group as 3. Further, from the degrees of disease development, a control value was calculated according to the calculation formula below.
# (§2) n=Degree of disease development of each chemical treated group
# [3] = system: cucumber anthracnose fungi (Colletotrichum orbiculare); test: Test Example H: cucumber anthracnose, spray treatment of cucumber plants; settings: in Cucumis sativus, read-out: Test H control value class (cucumber anthracnose)
# Description: [Test Example H] Cucumber Anthracnose
# Test plants (cucumber variety: Sagami Hanjiro) were cultivated until one first leaf appeared after the sowing of seeds. In the test, the chemical solution was obtained by dissolving the compound of the present invention in a dimethylsulfoxide-methanol mixed solvent (volume ratio: 9/1) and appropriately diluting the resultant solution with well water so that the concentration was 250 ppm. The obtained chemical solution was sprayed to the test plants (2.5 ml/pot). The plants after the drying of the chemical liquid were inoculated with cucumber anthracnose fungi (Colletotrichum orbiculare) by spraying a conidial suspension of 2 to 4×10^5 conidia/ml. After the inoculation, the plants were allowed to stand, for about 24 hours, in a moist chamber with the room temperature of 20 to 23° C. to promote the onset of disease. The degree of disease development after 6 to 10 days from the inoculation was investigated to evaluate the effect of the chemical solution.
# as §1, §2
# [4] = system: gray mold fungi (Botrytis cinerea); test: Test Example B: tomato gray mold, spray treatment of tomato plants; settings: in Solanum lycopersicum, read-out: Test B control value class (tomato gray mold)
# Source text: [Test Example B] Tomato Gray Mold
# Test plants (tomato variety: Oogata Fukuju) were cultivated until three to five first leaves (true leaves) appeared after the sowing of seeds. In the test, the chemical solution was obtained by dissolving the compound of the present invention in a dimethylsulfoxide-methanol mixed solvent (volume ratio: 9/1) and appropriately diluting the resultant solution with well water so that the concentration was 250 ppm. The obtained chemical solution was sprayed to the test plants (2.5 ml/pot). The plants after the drying of the chemical liquid were inoculated with gray mold fungi (Botrytis cinerea) by spraying a conidial suspension of 4 to 8×10^5 conidia/ml. After the inoculation, the plants were allowed to stand, for about 48 hours, in a moist chamber with the room temperature of 20 to 23° C. to promote the onset of disease. The degree of disease development after 2 to 3 days from the inoculation was investigated to evaluate the effect of the chemical solution.
# as §1, §2
# [5] = system: cabbage Alternaria sooty spot fungi (Alternaia brassicicola); test: Test Example C: cabbage Alternaria sooty spot, spray treatment of cabbage plants; format: in vivo; settings: control value=100{1-(n/3)}, read-out: Test C control value class (cabbage Alternaria sooty spot)
# Source text: [Test Example C] Cabbage Alternaria Sooty Spot
# Test plants (cabbage variety: Shikidori) were cultivated until the cotyledons extended after the sowing of seeds.
# <Control Value> Control value=100{1−(n/3)}
# [6] = system: wheat brown rust fungi (Puccinia recondita); test: Test Example E: wheat brown rust, spray treatment of wheat plants; format: in vivo; settings: control value=100{1-(n/3)}, read-out: Test E control value class (wheat brown rust)
# [7] = system: tomato late blight fungi (Phytophthora infestans); test: whole plant or invertebrate; format: in vivo; settings: read-out: Test F control value class (tomato late blight)
Compound,pest or weed control at 250 µg/mL [1],pest or weed control at 250 ppm [2],pest or weed control at 250 ppm [3],pest or weed control at 250 µg/mL [4],pest or weed control at 250 µg/mL [5],pest or weed control at 250 µg/mL [6],pest or weed control at 250 µg/mL [7]
"O=c1c(Br)cn(-c2ccccc2Cl)c(-c2c(F)cc(F)cc2F)c1Br [Compound 1, 3,5-dibromo-1-(2-chlorophenyl)-2-(2,4,6-trifluorophenyl)pyridin-4(1H)-one]",> 50%,> 50%,> 50%,> 50%,> 50%,> 50%,< 50%
"O=c1c(Br)cn(-c2ccccc2Cl)c(-c2c(F)cc(F)cc2F)c1Cl [Compound 2, 5-bromo-3-chloro-1-(2-chlorophenyl)-2-(2,4,6-trifluorophenyl)pyridin-4(1H)-one]",> 50%,> 50%,> 50%,> 50%,> 50%,> 50%,< 50%
"O=c1c(Cl)cn(-c2ccccc2Cl)c(-c2c(F)cc(F)cc2F)c1Cl [Compound 4, 3,5-dichloro-1-(2-chlorophenyl)-2-(2,4,6-trifluorophenyl)pyridin-4(1H)-one]",> 50%,> 50%,> 50%,> 50%,> 50%,> 50%,< 50%
"COc1cc(F)c(-c2c(Cl)c(=O)c(Cl)cn2-c2ccccc2Cl)c(F)c1 [Compound 5, 3,5-dichloro-1-(2-chlorophenyl)-2-(2,6-difluoro-4-methoxyphenyl)pyridin-4(1H)-one]",> 50%,> 50%,> 50%,> 50%,> 50%,> 50%,< 50%
"O=c1c(Br)cn(-c2cccnc2Cl)c(-c2c(F)cc(F)cc2F)c1Br [Compound 38, 3,5-dibromo-2′-chloro-2-(2,4,6-trifluorophenyl)-4H-[1,3′-bipyridin]-4-one]",> 50%,> 50%,> 50%,> 50%,> 50%,> 50%,> 50%
"O=c1c(Cl)cn(Cc2ccccc2)c(-c2c(F)cc(F)cc2F)c1Br [Compound 49, 1-benzyl-3-bromo-5-chloro-2-(2,4,6-trifluorophenyl)pyridin-4(1H)-one]",> 50%,> 50%,> 50%,> 50%,> 50%,> 50%,> 50%
"Cc1cc(-n2cc(Cl)c(=O)c(Br)c2-c2c(F)cc(F)cc2F)no1 [Compound 141, 3-bromo-5-chloro-1-(5-methylisoxazol-3-yl)-2-(2,4,6-trifluorophenyl)pyridin-4(1H)-one]",< 50%,< 50%,< 50%,> 50%,> 50%,> 50%,< 50%
"Cc1onc(-n2cc(Cl)c(=O)c(Br)c2-c2c(F)cc(F)cc2F)c1Br [Compound 142, 3-bromo-1-(4-bromo-5-methylisoxazol-3-yl)-5-chloro-2-(2,4,6-trifluorophenyl)pyridin-4(1H)-one]",> 50%,> 50%,> 50%,> 50%,> 50%,> 50%,> 50%
"CCC(C)Cn1cc(Cl)c(=O)c(Cl)c1-c1c(F)cc(F)cc1F (centres unmarked) [Compound 162, 3,5-dichloro-1-(2-methylbutyl)-2-(2,4,6-trifluorophenyl)pyridin-4(1H)-one]",> 50%,> 50%,> 50%,> 50%,> 50%,> 50%,< 50%
"Cc1ccccc1-n1cc(C)c(=O)c(C)c1-c1c(F)cc(F)cc1F [Compound 174, 3,5-dimethyl-1-(o-toluyl)-2-(2,4,6-trifluorophenyl)pyridin-4(1H)-one]",> 50%,> 50%,> 50%,> 50%,> 50%,> 50%,< 50%
"COc1cc(F)c(-c2c(C)c(=O)c(C)cn2-c2ccccc2C)c(F)c1 [Compound 175, 2-(2,6-difluoro-4-methoxyphenyl)-3,5-dimethyl-1-(o-toluyl)pyridin-4(1H)-one]",> 50%,> 50%,> 50%,> 50%,> 50%,> 50%,< 50%

# Source: US11000038B2, “Pyridone compounds and agricultural and horticultural fungicides containing the same as active ingredients” (priority 2017, dated 2021)
